Patent publication US20260262643A1, “HERBICIDAL BENZOXAZINES” (FMC CORPORATION, priority 2022, published 2026)

Assays:
kochia [1] = test: Test C postemergence; assay type: in vivo, Bassia scoparia; settings: 10 days
Excerpt: (§1) Seeds of plant species selected from barnyardgrass (Echinochloa crusgalli), blackgrass (Alopecurus myosuroides), corn (Zea mays), foxtail, giant (giant foxtail, Setaria faberi), green foxtail (Setaria viridis), goosegrass (Eleusine indica), kochia (Bassia scoparia), oat, wild (wild oat, Avena fatua), pigweed, palmer (palmer amaranth, palmer pigweed, Amaranthus palmeri), Pigweed, Redroot (redroot pigweed, Amaranthus retroflexus), ragweed (common ragweed, Ambrosia artemisiifolia), ryegrass, Italian ([…] ryegrass, Lolium multiflorum), soybean (Glycine max), and wheat (Triticum aestivum) were planted into a blend of loam soil and sand and treated preemergence with a directed soil spray using test chemicals formulated in a non-phytotoxic solvent mixture which included a surfactant. At the same time, plants selected from these crops and weed species and also galium (catchweed bedstraw, Galium aparine) and horseweed (Erigeron canadensis) were planted in pots containing the same blend of loam soil and sand and treated with postemergence applications of test chemicals formulated in the same manner. Plants ranged in height from 2 to 10 cm and were in the one- to two-leaf stage for the postemergence treatment. Treated plants and untreated controls were maintained in a greenhouse for 10 days, after which time all treated plants were compared to untreated controls and visually evaluated for injury. Plant response ratings, summarized in Table C, are based on a 0 to 100 scale where 0 is no effect and 100 is complete control. A dash (-) response means no test result.

ragweed [2] = test: Test C preemergence; assay type: in vivo, Ambrosia artemisiifolia; settings: 0 to 100 scale (0 no effect, 100 complete control)
Excerpt: as §1

ragweed [3] = test: Test C postemergence; assay type: in vivo, Ambrosia artemisiifolia; settings: 10 days
Excerpt: as §1

oat, wild [4] = test: Test C preemergence; assay type: in vivo, Avena fatua; settings: 0 to 100 scale (0 no effect, 100 complete control)
Excerpt: as §1

soybean [5] = test: Test C postemergence; assay type: in vivo, Glycine max; settings: 10 days
Excerpt: as §1

corn [6] = test: Test C postemergence; assay type: in vivo, Zea mays; settings: 10 days
Excerpt: as §1

pigweed, palmer [7] = test: Test C postemergence; assay type: in vivo, Amaranthus palmeri; settings: 10 days
Excerpt: as §1

barnyardgrass [8] = test: Test C preemergence; assay type: in vivo, Echinochloa crusgalli; settings: 0 to 100 scale (0 no effect, 100 complete control); for Plant response rating, Barnyardgrass: Preemergence, visual rating after 10 days
Excerpt: as §1

horseweed = test: Test C postemergence; assay type: in vivo, Erigeron canadensis; settings: 10 days
Excerpt: as §1

green foxtail [9] = test: Test C preemergence; assay type: in vivo, Setaria viridis; settings: 0 to 100 scale (0 no effect, 100 complete control); for Plant response rating, Foxtail, Green: Preemergence, visual rating after 10 days
Excerpt: as §1

ryegrass, Italian [10] = test: Test C preemergence; assay type: in vivo, Lolium multiflorum; settings: 0 to 100 scale (0 no effect, 100 complete control); for Plant response rating, Ryegrass, Italian: Preemergence, visual rating after 10 days
Excerpt: as §1

corn [11] = test: Test C preemergence; assay type: in vivo, Zea mays; settings: 0 to 100 scale (0 no effect, 100 complete control)
Excerpt: as §1

blackgrass [12] = test: Test C postemergence; assay type: in vivo, Alopecurus myosuroides; settings: 10 days
Excerpt: as §1

soybean [13] = test: Test C preemergence; assay type: in vivo, Glycine max; settings: 0 to 100 scale (0 no effect, 100 complete control)
Excerpt: as §1

oat, wild [14] = test: Test C postemergence; assay type: in vivo, Avena fatua; settings: 10 days
Excerpt: as §1

barnyardgrass [15] = test: Test C postemergence; assay type: in vivo, Echinochloa crusgalli
Excerpt: as §1

blackgrass [16] = test: Test C preemergence; assay type: in vivo, Alopecurus myosuroides; settings: 0 to 100 scale (0 no effect, 100 complete control); for Plant response rating, Blackgrass: Preemergence, visual rating after 10 days
Excerpt: as §1

ryegrass, Italian [17] = test: Test C postemergence; assay type: in vivo, Lolium multiflorum; settings: 10 days
Excerpt: as §1

wheat [18] = test: Test C postemergence; assay type: in vivo, Triticum aestivum; settings: 10 days
Excerpt: as §1

kochia [19] = test: Test C preemergence; assay type: in vivo, Bassia scoparia; settings: 0 to 100 scale (0 no effect, 100 complete control); for Plant response rating, Kochia: Preemergence, visual rating after 10 days
Excerpt: as §1

galium = test: Test C postemergence; assay type: in vivo, Galium aparine; settings: 10 days
Excerpt: as §1

pigweed, palmer [20] = test: Test C preemergence; assay type: in vivo, Amaranthus palmeri; settings: 0 to 100 scale (0 no effect, 100 complete control); for Plant response rating, Pigweed, Palmer: Preemergence, visual rating after 10 days
Excerpt: as §1

wheat [21] = test: Test C preemergence; assay type: in vivo, Triticum aestivum; settings: 0 to 100 scale (0 no effect, 100 complete control)
Excerpt: as §1

green foxtail [22] = test: Test C postemergence; assay type: in vivo, Setaria viridis; settings: Postemergence, 1000 g ai/ha, 10 days, visual 0 to 100 scale (0 no effect, 100 complete control)
Excerpt: as §1

[23] = 125 g ai/ha, postemergence, 0 to 100 scale, 0 no effect, 100 complete control
[24] = Postemergence, 500 g ai/ha, visual 0 to 100 scale (0 no effect, 100 complete control)
[25] = Preemergence, 500 g ai/ha, visual rating after 10 days
[26] = Test C, preemergence, 125 g ai/ha
[27] = Postemergence, 1000 g ai/ha, visual 0 to 100 scale (0 no effect, 100 complete control)
[28] = Postemergence, 1000 g ai/ha, 0 to 100 scale, 0 no effect, 100 complete control

## Cc1cccc2c1O[C@@H](C)CN2C(=O)c1cccc(-n2cnc(N(C)C)n2)c1 [Compound 226]
Kochia [1]; [23]
  Plant response rating, Kochia: 70
Kochia [1]; [24]
  Plant response rating, Kochia: 80
Ragweed [2]; [25]
  Plant response rating, Ragweed: 20
Ragweed [2]; [26]
  Ragweed plant response rating: 20
Ragweed [3]; [23]
  Plant response rating, Ragweed: 30
Ragweed [3]; [24]
  Plant response rating, Ragweed: 60
oat, wild [4]; [25]
  Plant response rating, Oat, Wild: 60
oat, wild [4]; [26]
  Oat, Wild plant response rating: 40
Soybean [5]; [23]
  Plant response rating, Soybean: 100
Soybean [5]; [24]
  Plant response rating, Soybean: 100
Corn [6]; [23]
  Plant response rating, Corn: 20
Corn [6]; [24]
  Plant response rating, Corn: 60
pigweed, palmer [7]; [23]
  Plant response rating, Pigweed, Palmer: 40
pigweed, palmer [7]; [24]
  Plant response rating, Pigweed, Palmer: 80
Barnyardgrass [8]; 500 g ai/ha
  Plant response rating, Barnyardgrass: 90
Barnyardgrass [8]; [26]
  Barnyardgrass plant response rating: 50
horseweed; [23]
  Plant response rating, Horseweed: 10
horseweed; [24]
  Plant response rating, Horseweed: 30
Green foxtail [9]; 500 g ai/ha
  Plant response rating, Foxtail, Green: 100
Green foxtail [9]; [26]
  Foxtail, Green plant response rating: 100
ryegrass, Italian [10]; 500 g ai/ha
  Plant response rating, Ryegrass, Italian: 70
ryegrass, Italian [10]; [26]
  Ryegrass, Italian plant response rating: 70
Corn [11]; [25]
  Plant response rating, Corn: 0
Corn [11]; [26]
  Corn plant response rating: 0
Blackgrass [12]; [23]
  Plant response rating, Blackgrass: 60
Blackgrass [12]; [24]
  Plant response rating, Blackgrass: 90
Soybean [13]; [25]
  Plant response rating, Soybean: 30
Soybean [13]; [26]
  Soybean plant response rating: 20
oat, wild [14]; [23]
  Plant response rating, Oat, Wild: 10
oat, wild [14]; [24]
  Plant response rating, Oat, Wild: 60
Barnyardgrass [15]; 125 g ai/ha, postemergence, 10 days, 0 to 100 scale, 0 no effect, 100 complete control
  Plant response rating, Barnyardgrass: 50
Barnyardgrass [15]; Postemergence, 500 g ai/ha, 10 days, visual 0 to 100 scale (0 no effect, 100 complete control)
  Plant response rating, Barnyardgrass: 80
Blackgrass [16]; 500 g ai/ha
  Plant response rating, Blackgrass: 60
Blackgrass [16]; [26]
  Blackgrass plant response rating: 30
ryegrass, Italian [17]; [23]
  Plant response rating, Ryegrass, Italian: 50
ryegrass, Italian [17]; [24]
  Plant response rating, Ryegrass, Italian: 90
Wheat [18]; [23]
  Plant response rating, Wheat: 10
Wheat [18]; [24]
  Plant response rating, Wheat: 30
Kochia [19]; 500 g ai/ha
  Plant response rating, Kochia: 90
Kochia [19]; [26]
  Kochia plant response rating: 50
galium; [23]
  Plant response rating, Galium: 80
galium; [24]
  Plant response rating, Galium: 100
pigweed, palmer [20]; 500 g ai/ha
  Plant response rating, Pigweed, Palmer: 90
pigweed, palmer [20]; [26]
  Pigweed, Palmer plant response rating: 50
Wheat [21]; [25]
  Plant response rating, Wheat: 10
Wheat [21]; [26]
  Wheat plant response rating: 0

## Cc1cc(-c2cccc(C(=O)N3C[C@H](C)Oc4c(C)cccc43)c2)cs1 [Compound 246]
Kochia [1]; [27]
  Plant response rating, Kochia: 20
Ragweed [3]; [27]
  Plant response rating, Ragweed: 30
pigweed, palmer [7]; [27]
  Plant response rating, Pigweed, Palmer: 0
Barnyardgrass [8]; 1000 g ai/ha
  Plant response rating, Barnyardgrass: 0
horseweed; [27]
  Plant response rating, Horseweed: 30
Green foxtail [9]; 1000 g ai/ha
  Plant response rating, Foxtail, Green: 0
ryegrass, Italian [10]; 1000 g ai/ha
  Plant response rating, Ryegrass, Italian: 30
Blackgrass [12]; [27]
  Plant response rating, Blackgrass: 0
Barnyardgrass [15]; [28]
  Plant response rating, Barnyardgrass: 0
Blackgrass [16]; 1000 g ai/ha
  Plant response rating, Blackgrass: 0
Green foxtail [22]
  Plant response rating, Foxtail, Green: 0
ryegrass, Italian [17]; [27]
  Plant response rating, Ryegrass, Italian: 0
Kochia [19]; 1000 g ai/ha
  Plant response rating, Kochia: 0
galium; [27]
  Plant response rating, Galium: 0
pigweed, palmer [20]; 1000 g ai/ha
  Plant response rating, Pigweed, Palmer: 0

## Cc1csc(-c2cccc(C(=O)N3C[C@H](C)Oc4c(C)cccc43)c2)c1 [Compound 245]
Kochia [1]; [27]
  Plant response rating, Kochia: 0
Ragweed [3]; [27]
  Plant response rating, Ragweed: 10
pigweed, palmer [7]; [27]
  Plant response rating, Pigweed, Palmer: 0
Barnyardgrass [8]; 1000 g ai/ha
  Plant response rating, Barnyardgrass: 20
horseweed; [27]
  Plant response rating, Horseweed: 30
Green foxtail [9]; 1000 g ai/ha
  Plant response rating, Foxtail, Green: 30
ryegrass, Italian [10]; 1000 g ai/ha
  Plant response rating, Ryegrass, Italian: 60
Blackgrass [12]; [27]
  Plant response rating, Blackgrass: 0
Barnyardgrass [15]; [28]
  Plant response rating, Barnyardgrass: 0
Blackgrass [16]; 1000 g ai/ha
  Plant response rating, Blackgrass: 0
Green foxtail [22]
  Plant response rating, Foxtail, Green: 0
ryegrass, Italian [17]; [27]
  Plant response rating, Ryegrass, Italian: 0
Kochia [19]; 1000 g ai/ha
  Plant response rating, Kochia: 0
galium; [27]
  Plant response rating, Galium: 0
pigweed, palmer [20]; 1000 g ai/ha
  Plant response rating, Pigweed, Palmer: 20
